Experimental data published in patent US11970498B2, “CDK2 inhibitors” (BLUEPRINT MEDICINES CORPORATION, priority 2021, dated 2024).

Assays:
CDK1/Cyclin B1, GST-tag = biological target: T1, CDK1/Cyclin B1, GST-tag (Homo sapiens, UniProt P06493); assay: CDK1/Cyclin B1 biochemical phosphorylation assay (Caliper mobility shift); conditions: apparent IC50; 1.0 mM ATP or ATP Km; 1.5 nM enzyme; 25° C.
T1 construct: GST
How it was run: (§1)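 7.5 µM 5-FAM-QSPKKG-CONH2 peptide phosphorylated by CDK2/Cyclin E (1.25 nM) or GST-CDK1/Cyclin B1 (1.5 nM) at 1.0 mM ATP or ATP Km, in HEPES pH 7.5, MgCl2, Brij-35, DTT, 1% DMSO, 25 °C to 10–20% conversion. EDTA stop; Caliper mobility-shift readout; apparent IC50 from percent activity vs log concentration.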

CDK2/Cyclin E = CDK2/Cyclin E (Homo sapiens, UniProt P24941); assay: CDK2/Cyclin E biochemical phosphorylation assay (Caliper mobility shift); conditions: apparent IC50; 1.0 mM ATP or ATP Km; 1.25 nM enzyme; 25° C.; read-out: CDK2/cyclin E1 IC50
How it was run: as §1

T1 sequence (P06493 whole entry): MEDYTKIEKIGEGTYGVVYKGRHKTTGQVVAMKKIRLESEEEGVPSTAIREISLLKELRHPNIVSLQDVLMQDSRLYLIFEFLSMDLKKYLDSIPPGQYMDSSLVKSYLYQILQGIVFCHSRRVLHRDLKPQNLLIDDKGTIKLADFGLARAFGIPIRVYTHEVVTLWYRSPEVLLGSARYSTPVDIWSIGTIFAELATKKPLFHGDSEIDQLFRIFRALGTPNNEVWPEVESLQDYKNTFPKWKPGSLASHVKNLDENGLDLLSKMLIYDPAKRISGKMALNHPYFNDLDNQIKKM
T1 sequence (P14635 whole entry partner): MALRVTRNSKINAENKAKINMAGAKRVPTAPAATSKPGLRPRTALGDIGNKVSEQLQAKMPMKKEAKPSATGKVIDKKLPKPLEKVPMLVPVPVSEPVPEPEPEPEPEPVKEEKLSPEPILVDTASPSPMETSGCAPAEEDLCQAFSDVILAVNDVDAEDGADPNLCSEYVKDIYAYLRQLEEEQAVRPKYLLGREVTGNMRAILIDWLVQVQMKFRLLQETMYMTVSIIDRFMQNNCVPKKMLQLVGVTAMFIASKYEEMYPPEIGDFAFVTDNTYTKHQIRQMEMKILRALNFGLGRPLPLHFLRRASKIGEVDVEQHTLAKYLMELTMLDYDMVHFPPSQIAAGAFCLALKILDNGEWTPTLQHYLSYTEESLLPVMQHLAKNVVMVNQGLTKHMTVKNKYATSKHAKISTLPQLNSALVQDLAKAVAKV

Compound | IC50 (CDK1/Cyclin B1, GST-tag) [nM] | IC50 (CDK2/Cyclin E) [nM]
FC(F)Oc1cc(Nc2cnc3cnn([C@@H](C(F)F)C4CCOCC4)c3n2)n[nH]1 (single isomer, unassigned) [Example 29, (R)-1-(2,2-difluoro-1-(tetrahydro-2H-pyran-4-yl)ethyl)-N-(5-(difluoromethoxy)-1H-pyrazol-3-yl)-1H-pyrazolo[3,4-b]pyrazin-6-amine or (S)-1-(2,2-difluoro-1-(tetrahydro-2H-pyran-4-yl)ethyl)-N-(5-(difluoromethoxy)-1H-pyrazol-3-yl)-1H-pyrazolo[3,4-b]pyrazin-6-amine] | ≥ 500 | ≤ 10
COc1cc(Nc2cnc3c(F)nn([C@@H](C)C4CCOCC4)c3n2)n[nH]1 [Example 123, (S)-3-fluoro-N-(5-methoxy-1H-pyrazol-3-yl)-1-(1-(tetrahydro-2H-pyran-4-yl)ethyl)-1H-pyrazolo[3,4-b]pyrazin-6-amine] | ≥ 500 | ≤ 10
FC(F)Oc1cc(Nc2cnc3cnn(C[C@H]4CCOC4)c3n2)n[nH]1 (single isomer, unassigned) [Example 144, (S)-N-(5-(difluoromethoxy)-1H-pyrazol-3-yl)-1-((tetrahydrofuran-3-yl)methyl)-1H-pyrazolo[3,4-b]pyrazin-6-amine or (R)-N-(5-(difluoromethoxy)-1H-pyrazol-3-yl)-1-((tetrahydrofuran-3-yl)methyl)-1H-pyrazolo[3,4-b]pyrazin-6-amine] | < 100 | ≤ 10
FC(F)Oc1cc(Nc2cnc3cnn(C[C@@H]4CCCCO4)c3n2)n[nH]1 [Example 103, (S)-N-(5-(difluoromethoxy)-1H-pyrazol-3-yl)-1-((tetrahydro-2H-pyran-2-yl)methyl)-1H-pyrazolo[3,4-b]pyrazin-6-amine] | ≥ 500 | 20 to 30
COc1cc(Nc2cnc3cnn(Cc4cccnc4F)c3n2)n[nH]1 [Example 137, 1-((2-fluoropyridin-3-yl)methyl)-N-(5-methoxy-1H-pyrazol-3-yl)-1H-pyrazolo[3,4-b]pyrazin-6-amine] | 100 to 500 | ≤ 10
C[C@@H](c1cnccc1F)n1ncc2ncc(Nc3cc(OC(F)F)[nH]n3)nc21 (single isomer, unassigned) [Example 173, (S)-N-(5-(difluoromethoxy)-1H-pyrazol-3-yl)-1-(1-(4-fluoropyridin-3-yl)ethyl)-1H-pyrazolo[3,4-b]pyrazin-6-amine or (R)-N-(5-(difluoromethoxy)-1H-pyrazol-3-yl)-1-(1-(4-fluoropyridin-3-yl)ethyl)-1H-pyrazolo[3,4-b]pyrazin-6-amine] | ≥ 500 | 20 to 30
COc1cc(Nc2cnc3cnn(CC45CCC(CC4)OC5)c3n2)n[nH]1 [Example 136, 1-((2-oxabicyclo[2.2.2]octan-4-yl)methyl)-N-(5-methoxy-1H-pyrazol-3-yl)-1H-pyrazolo[3,4-b]pyrazin-6-amine] | ≥ 500 | 10 to 20
FC(F)Oc1cc(Nc2cnc3cnn(CC45CC(C4)C5)c3n2)n[nH]1 [Example 106, 1-(bicyclo[1.1.1]pentan-1-ylmethyl)-N-(5-(difluoromethoxy)-1H-pyrazol-3-yl)-1H-pyrazolo[3,4-b]pyrazin-6-amine] | 100 to 500 | ≤ 10
OCC1CC(n2ncc3ncc(Nc4cc(OC(F)F)[nH]n4)nc32)C1 (stereo not drawn) [Example 219, (3-(6-((5-(difluoromethoxy)-1H-pyrazol-3-yl)amino)-1H-pyrazolo [3,4-b]pyrazin-1-yl)cyclobutyl)methanol] | ≥ 500 | 20 to 30
FC(F)Oc1cc(Nc2cnc3cnn([C@@H](c4cccnc4)C4CC4)c3n2)n[nH]1 (single isomer, unassigned) [Example 147, (R)-1-(cyclopropyl(pyridin-3-yl)methyl)-N-(5-(difluoromethoxy)-1H-pyrazol-3-yl)-1H-pyrazolo[3,4-b]pyrazin-6-amine or (S)-1-(cyclopropyl(pyridin-3-yl)methyl)-N-(5-(difluoromethoxy)-1H-pyrazol-3-yl)-1H-pyrazolo[3,4-b]pyrazin-6-amine] | ≥ 500 | ≤ 10
COc1cc(Nc2cnc3cnn(Cc4cccnc4)c3n2)n[nH]1 [Example 135, N-(5-methoxy-1H-pyrazol-3-yl)-1-(pyridin-3-ylmethyl)-1H-pyrazolo[3,4-b]pyrazin-6-amine] | ≥ 500 | 10 to 20
C[C@H](C1CCOCC1)n1ncc2ncc(Nc3cc(OC(F)F)[nH]n3)nc21 [Example 34, (R)-N-(5-(difluoromethoxy)-1H-pyrazol-3-yl)-1-(1-(tetrahydro-2H-pyran-4-yl)ethyl)-1H-pyrazolo[3,4-b]pyrazin-6-amine] | ≥ 500 | 10 to 20
C[C@@H](c1cccnc1F)n1ncc2ncc(Nc3cc(OC(F)F)[nH]n3)nc21 [Example 8, (S)—N-(5-(difluoromethoxy)-1H-pyrazol-3-yl)-1-(1-(2-fluoropyridin-3-yl)ethyl)-1H-pyrazolo[3,4-b]pyrazin-6-amine] | < 100 | ≤ 10
FC(F)Oc1cc(Nc2cnc3cnn(Cc4ccccc4)c3n2)n[nH]1 [Example 36, 1-benzyl-N-(5-(difluoromethoxy)-1H-pyrazol-3-yl)-1H-pyrazolo[3,4-b]pyrazin-6-amine] | ≥ 500 | 20 to 30
C[C@@H](c1ccccc1F)n1ncc2ncc(Nc3cc(OC(F)F)[nH]n3)nc21 [Example 46, (S)-N-(5-(difluoromethoxy)-1H-pyrazol-3-yl)-1-(1-(2-fluorophenyl)ethyl)-1H-pyrazolo[3,4-b]pyrazin-6-amine] | ≥ 500 | ≤ 10
FC(F)Oc1cc(Nc2cnc3cnn(C[C@@H]4CC4(F)F)c3n2)n[nH]1 (single isomer, unassigned) [Example 163, (S)-1-((2,2-difluorocyclopropyl)methyl)-N-(5-(difluoromethoxy)-1H-pyrazol-3-yl)-1H-pyrazolo[3,4-b]pyrazin-6-amine or (R)-1-((2,2-difluorocyclopropyl)methyl)-N-(5-(difluoromethoxy)-1H-pyrazol-3-yl)-1H-pyrazolo[3,4-b]pyrazin-6-amine] | ≥ 500 | ≤ 10
N#Cc1nn(CC2CCOCC2)c2nc(Nc3cc(OC(F)F)[nH]n3)cnc12 [Example 62, 6-((5-(difluoromethoxy)-1H-pyrazol-3-yl)amino)-1-((tetrahydro-2H-pyran-4-yl)methyl)-1H-pyrazolo[3,4-b]pyrazine-3-carbonitrile] | ≥ 500 | ≤ 10
COc1cc(Nc2cnc3cnn(C(C)c4cccnn4)c3n2)n[nH]1 (single isomer, unassigned) [Example 33, (R)—N-(5-methoxy-1H-pyrazol-3-yl)-1-(1-(pyridazin-3-yl)ethyl)-1H-pyrazolo[3,4-b]pyrazin-6-amine or (S)—N-(5-methoxy-1H-pyrazol-3-yl)-1-(1-(pyridazin-3-yl)ethyl)-1H-pyrazolo[3,4-b]pyrazin-6-amine] | 100 to 500 | ≤ 10
COc1cc(Nc2cnc3cnn(CC4(C)COC4)c3n2)n[nH]1 [Example 133, N-(5-methoxy-1H-pyrazol-3-yl)-1-((3-methyloxetan-3-yl)methyl)-1H-pyrazolo[3,4-b]pyrazin-6-amine] | ≥ 500 | 20 to 30
FC[C@@H](c1cccnc1)n1ncc2ncc(Nc3cc(OC(F)F)[nH]n3)nc21 (single isomer, unassigned) [Example 19, (R)—N-(5-(difluoromethoxy)-1H-pyrazol-3-yl)-1-(2-fluoro-1-(pyridin-3-yl)ethyl)-1H-pyrazolo[3,4-b]pyrazin-6-amine or (S)—N-(5-(difluoromethoxy)-1H-pyrazol-3-yl)-1-(2-fluoro-1-(pyridin-3-yl)ethyl)-1H-pyrazolo[3,4-b]pyrazin-6-amine] | 100 to 500 | ≤ 10
FC(F)Oc1cc(Nc2cnc3cnn(Cc4ccno4)c3n2)n[nH]1 [Example 134, N-(5-(difluoromethoxy)-1H-pyrazol-3-yl)-1-(isoxazol-5-ylmethyl)-1H-pyrazolo[3,4-b]pyrazin-6-amine] | ≥ 500 | 10 to 20
COc1cc(Nc2cnc3cnn([C@@H](C)C4COC4)c3n2)n[nH]1 [Example 71, (S)-N-(5-methoxy-1H-pyrazol-3-yl)-1-(1-(oxetan-3-yl)ethyl)-1H-pyrazolo[3,4-b]pyrazin-6-amine] | ≥ 500 | 10 to 20
CC1(Cn2ncc3ncc(Nc4cc(OC(F)F)[nH]n4)nc32)CC1 [Example 98, N-(5-(difluoromethoxy)-1H-pyrazol-3-yl)-1-((1-methylcyclopropyl)methyl)-1H-pyrazolo[3,4-b]pyrazin-6-amine] | ≥ 500 | 10 to 20
FC(F)Oc1cc(Nc2cnc3cnn([C@H](c4ccccn4)C4CC4)c3n2)n[nH]1 [Example 102, (S)-1-(cyclopropyl(pyridin-2-yl)methyl)-N-(5-(difluoromethoxy)-1H-pyrazol-3-yl)-1H-pyrazolo[3,4-b]pyrazin-6-amine] | ≥ 500 | 20 to 30
CCC([C@@H](C)O)n1ncc2ncc(Nc3cc(OC(F)F)[nH]n3)nc21 (single isomer, unassigned) [Example 202] | ≥ 500 | 30 to 100
FC(F)Oc1cc(Nc2cnc3cnn(CCc4cn[nH]c4)c3n2)n[nH]1 [Example 129, 1-(2-(1H-pyrazol-4-yl)ethyl)-N-(5-(difluoromethoxy)-1H-pyrazol-3-yl)-1H-pyrazolo[3,4-b]pyrazin-6-amine] | 100 to 500 | ≤ 10
COc1ncccc1[C@H](C)n1ncc2ncc(Nc3cc(OC(F)F)[nH]n3)nc21 [Example 59, (S)-N-(5-(difluoromethoxy)-1H-pyrazol-3-yl)-1-(1-(2-methoxypyridin-3-yl)ethyl)-1H-pyrazolo[3,4-b]pyrazin-6-amine] | ≥ 500 | ≤ 10
